Test results from ChEMBL document CHEMBL1649268, “Comparative in vitro activity profile of oritavancin against recent gram-positive clinical isolates” (2009).
Converted amounts (≈) assume the structure as drawn.

Assays:
Type in all cases: functional
Staphylococcus aureus [1] = experiment: Antimicrobial activity against Staphylococcus aureus clinical isolates assessed as percent susceptible isolates by broth microdilution method
Staphylococcus aureus [2] = experiment: Antimicrobial activity against Staphylococcus aureus clinical isolates by broth microdilution method
[3] = system: Staphylococcus haemolyticus; experiment: Antimicrobial activity against oxacillin-resistant Staphylococcus haemolyticus clinical isolates assessed as resistant isolates by broth microdilution method
[4] = system: Staphylococcus haemolyticus; experiment: Antimicrobial activity against oxacillin-resistant Staphylococcus haemolyticus clinical isolates by broth microdilution method
[5] = system: Staphylococcus haemolyticus; experiment: Antimicrobial activity against Staphylococcus haemolyticus clinical isolates assessed as percent susceptible isolates by broth microdilution method
[6] = system: Staphylococcus epidermidis; experiment: Antimicrobial activity against oxacillin-susceptible Staphylococcus epidermidis clinical isolates assessed as resistant isolates by broth microdilution method
[7] = system: Staphylococcus epidermidis; experiment: Antimicrobial activity against Staphylococcus epidermidis clinical isolates by broth microdilution method
[8] = system: Staphylococcus epidermidis; experiment: Antimicrobial activity against oxacillin-resistant Staphylococcus epidermidis clinical isolates by broth microdilution method
[9] = system: Staphylococcus haemolyticus; experiment: Antimicrobial activity against Staphylococcus haemolyticus clinical isolates by broth microdilution method
[10] = system: Staphylococcus haemolyticus; experiment: Antimicrobial activity against oxacillin-susceptible Staphylococcus haemolyticus clinical isolates assessed as percent susceptible isolates by broth microdilution method
[11] = system: Staphylococcus epidermidis; experiment: Antimicrobial activity against Staphylococcus epidermidis clinical isolates assessed as percent susceptible isolates by broth microdilution method
Staphylococcus aureus [12] = experiment: Antimicrobial activity against oxacillin-resistant Staphylococcus aureus clinical isolates assessed as percent susceptible isolates by broth microdilution method
[13] = system: Staphylococcus haemolyticus; experiment: Antimicrobial activity against oxacillin-susceptible Staphylococcus haemolyticus clinical isolates by broth microdilution method
[14] = system: Staphylococcus epidermidis; experiment: Antimicrobial activity against oxacillin-susceptible Staphylococcus epidermidis clinical isolates by broth microdilution method
[15] = system: Staphylococcus epidermidis; experiment: Antimicrobial activity against oxacillin-susceptible Staphylococcus epidermidis clinical isolates assessed as percent susceptible isolates by broth microdilution method
Staphylococcus aureus [16] = experiment: Antimicrobial activity against oxacillin-susceptible Staphylococcus aureus clinical isolates by broth microdilution method
[17] = system: Staphylococcus haemolyticus; experiment: Antimicrobial activity against Staphylococcus haemolyticus clinical isolates assessed as resistant isolates by broth microdilution method
[18] = system: Staphylococcus epidermidis; experiment: Antimicrobial activity against oxacillin-resistant Staphylococcus epidermidis clinical isolates assessed as resistant isolates by broth microdilution method
[19] = system: Staphylococcus haemolyticus; experiment: Antimicrobial activity against oxacillin-resistant Staphylococcus haemolyticus clinical isolates assessed as percent susceptible isolates by broth microdilution method
[20] = system: Staphylococcus epidermidis; experiment: Antimicrobial activity against Staphylococcus epidermidis clinical isolates assessed as resistant isolates by broth microdilution method
[21] = system: Staphylococcus epidermidis; experiment: Antimicrobial activity against oxacillin-resistant Staphylococcus epidermidis clinical isolates assessed as percent susceptible isolates by broth microdilution method
Staphylococcus aureus [22] = experiment: Antimicrobial activity against oxacillin-susceptible Staphylococcus aureus clinical isolates assessed as percent susceptible isolates by broth microdilution method
Staphylococcus aureus [23] = experiment: Antimicrobial activity against oxacillin-resistant Staphylococcus aureus clinical isolates by broth microdilution method
[24] = system: Staphylococcus haemolyticus; experiment: Antimicrobial activity against oxacillin-susceptible Staphylococcus haemolyticus clinical isolates assessed as resistant isolates by broth microdilution method
Staphylococcus aureus [25] = experiment: Antimicrobial activity against oxacillin-susceptible Staphylococcus aureus clinical isolates assessed as resistant isolates by broth microdilution method
Staphylococcus aureus [26] = experiment: Antimicrobial activity against oxacillin-resistant Staphylococcus aureus clinical isolates assessed as resistant isolates by broth microdilution method
Staphylococcus aureus [27] = experiment: Antimicrobial activity against Staphylococcus aureus clinical isolates assessed as resistant isolates by broth microdilution method
Enterococcus faecium [28] = experiment: Antimicrobial activity against Enterococcus faecium expressing VanA gene clinical isolates assessed as percent susceptible isolates by broth microdilution method
Enterococcus faecalis [29] = experiment: Antimicrobial activity against Enterococcus faecalis clinical isolates assessed as percent susceptible isolates by broth microdilution method
Enterococcus faecium [30] = experiment: Antimicrobial activity against Enterococcus faecium clinical isolates by broth microdilution method
Enterococcus faecium [31] = experiment: Antimicrobial activity against vancomycin-nonsusceptible Enterococcus faecium clinical isolates assessed as percent susceptible isolates by broth microdilution method
Enterococcus faecalis [32] = experiment: Antimicrobial activity against vancomycin-susceptible Enterococcus faecalis clinical isolates assessed as percent susceptible isolates by broth microdilution method
Enterococcus faecalis [33] = experiment: Antimicrobial activity against Enterococcus faecalis expressing VanA gene clinical isolates by broth microdilution method
Enterococcus faecium [34] = experiment: Antimicrobial activity against vancomycin-susceptible Enterococcus faecium clinical isolates assessed as percent susceptible isolates by broth microdilution method
Enterococcus faecium [35] = experiment: Antimicrobial activity against Enterococcus faecium clinical isolates assessed as percent susceptible isolates by broth microdilution method
Enterococcus faecalis [36] = experiment: Antimicrobial activity against vancomycin-nonsusceptible Enterococcus faecalis clinical isolates assessed as percent susceptible isolates by broth microdilution method
Enterococcus faecium [37] = experiment: Antimicrobial activity against Enterococcus faecium expressing VanA gene clinical isolates by broth microdilution method
Enterococcus faecalis [38] = experiment: Antimicrobial activity against vancomycin-susceptible Enterococcus faecalis clinical isolates by broth microdilution method
Enterococcus faecium [39] = experiment: Antimicrobial activity against Enterococcus faecium expressing VanB gene clinical isolates by broth microdilution method
Enterococcus faecium [40] = experiment: Antimicrobial activity against vancomycin-susceptible Enterococcus faecium clinical isolates by broth microdilution method
Enterococcus faecalis [41] = experiment: Antimicrobial activity against Enterococcus faecalis expressing VanA gene clinical isolates assessed as percent susceptible isolates by broth microdilution method
Enterococcus faecium [42] = experiment: Antimicrobial activity against Enterococcus faecium expressing VanB gene clinical isolates assessed as percent susceptible isolates by broth microdilution method
Enterococcus faecalis [43] = experiment: Antimicrobial activity against Enterococcus faecalis expressing VanB gene clinical isolates by broth microdilution method
Enterococcus faecalis [44] = experiment: Antimicrobial activity against Enterococcus faecalis clinical isolates by broth microdilution method
Enterococcus faecalis [45] = experiment: Antimicrobial activity against vancomycin-nonsusceptible Enterococcus faecalis clinical isolates by broth microdilution method
Enterococcus faecalis [46] = experiment: Antimicrobial activity against Enterococcus faecalis expressing VanB gene clinical isolates assessed as percent susceptible isolates by broth microdilution method
Enterococcus faecium [47] = experiment: Antimicrobial activity against vancomycin-nonsusceptible Enterococcus faecium clinical isolates by broth microdilution method

| SMILES | Activity (Staphylococcus aureus [1]) [%] | MIC90 (Staphylococcus aureus [2]) [mg/L] | MIC90 [4] [mg/L] | Activity [5] [%] | MIC90 [7] [mg/L] | MIC90 [8] [mg/L] | MIC90 [9] [mg/L] | Activity [10] [%] | Activity [11] [%] | MIC90 [13] [mg/L] | MIC90 [14] [mg/L] | Activity [15] [%] | MIC90 (Staphylococcus aureus [16]) [mg/L] | Activity [21] [%] | Activity (Staphylococcus aureus [22]) [%] | MIC90 (Staphylococcus aureus [23]) [mg/L] | other results |
| --- | --- | --- | --- | --- | --- | --- | --- | --- | --- | --- | --- | --- | --- | --- | --- | --- | --- |
| Cc1onc(-c2ccccc2)c1C(=O)N[C@@H]1C(=O)N2[C@@H]1SC(C)(C)[C@@H]2C(=O)O [OXACILLIN] | 46.2 | > 8 | > 8 | 26.8 | > 8 | > 8 | > 8 | 100 | 27.3 | 0.25 (≈ 0.623 µM) | 0.12 (≈ 0.299 µM) | 100 | 0.5 (≈ 1.25 µM) | 0 | 100 | > 8 | Activity [3]: 100%; Percent of isolates resistant [6]: 0%; Activity (Staphylococcus aureus [12]): 0%; Resistant isolates [17]: 73.2%; Percent of isolates resistant [18]: 100%; Activity [19]: 0%; Percent of isolates resistant [20]: 72.7%; Activity [24]: 0%; Percent of isolates resistant (Staphylococcus aureus [25]): 0%; Percent resistant isolates (Staphylococcus aureus [26]): 100%; Percent resistant isolates (Staphylococcus aureus [27]): 53.8% |
| CCCCCCCCCC(=O)N[C@@H](Cc1c[nH]c2ccccc12)C(=O)N[C@H](CC(N)=O)C(=O)N[C@@H](CC(=O)O)C(=O)N[C@@H]1C(=O)NCC(=O)N[C@@H](CCCN)C(=O)N[C@@H](CC(=O)O)C(=O)N[C@H](C)C(=O)N[C@@H](CC(=O)O)C(=O)NCC(=O)N[C@H](CO)C(=O)N[C@@H]([C@H](C)CC(=O)O)C(=O)N[C@@H](CC(=O)c2ccccc2N)C(=O)O[C@@H]1C | 99.9 | 0.5 (≈ 0.309 µM) | 0.5 (≈ 0.309 µM) | 100 | 0.5 (≈ 0.309 µM) | 0.5 (≈ 0.309 µM) | 0.5 (≈ 0.309 µM) | 100 | 99.9 | 0.5 (≈ 0.309 µM) | 0.5 (≈ 0.309 µM) | 100 | 0.5 (≈ 0.309 µM) | 99.8 | 99.9 | 0.5 (≈ 0.309 µM) | Activity (Enterococcus faecium [28]): 98.8%; Activity (Enterococcus faecalis [29]): 99.9%; MIC90 (Enterococcus faecium [30]): 4 mg/L (≈ 2.47 µM); Activity (Enterococcus faecium [31]): 98.5%; Activity (Enterococcus faecalis [32]): 99.9%; MIC90 (Enterococcus faecalis [33]): 2 mg/L (≈ 1.23 µM); Activity (Enterococcus faecium [34]): 98.3%; Activity (Enterococcus faecium [35]): 98.4%; Activity (Enterococcus faecalis [36]): 98.9%; MIC90 (Enterococcus faecium [37]): 4 mg/L (≈ 2.47 µM); MIC90 (Enterococcus faecalis [38]): 2 mg/L (≈ 1.23 µM); MIC90 (Enterococcus faecium [39]): 4 mg/L (≈ 2.47 µM); MIC90 (Enterococcus faecium [40]): 4 mg/L (≈ 2.47 µM); Activity (Enterococcus faecalis [41]): 98.5%; Activity (Enterococcus faecium [42]): 93.1%; MIC90 (Enterococcus faecalis [43]): 2 mg/L (≈ 1.23 µM); MIC90 (Enterococcus faecalis [44]): 2 mg/L (≈ 1.23 µM); MIC90 (Enterococcus faecalis [45]): 2 mg/L (≈ 1.23 µM); Activity (Enterococcus faecalis [46]): 100%; MIC90 (Enterococcus faecium [47]): 4 mg/L (≈ 2.47 µM) |
